The target in one data set is T1, MMP-13 catalytic domain (Homo sapiens, UniProt P45452).
T1 construct: use the catalytic domain of the MMP-13 enzyme, namely matrix metalloproteinase-13 catalytic domain (“MMP-13CD”)
As to the kind of experiment: MMP-13 catalytic domain inhibition (thiopeptolide substrate hydrolysis). Conditions: read-out: MMP-13CD IC50. It counts as biochemical. The source says:
The assays measure the amount by which a test compound reduces the hydrolysis of a thiopeptolide substrate catalyzed by a matrix metalloproteinase enzyme. […] One such assay is described below in Biological Method 1.
Some of the particular methods described below use the catalytic domain of the MMP-13 enzyme, namely matrix metalloproteinase-13 catalytic domain (“MMP-13CD”), rather than the corresponding full-length enzyme, MMP-13.
Thiopeptolide substrates show virtually no decomposition or hydrolysis at or below neutral pH in the absence of a matrix metalloproteinase enzyme. A typical thiopeptolide substrate commonly utilized for assays is Ac-Pro-Leu-Gly-thioester-Leu-Leu-Gly-OEt. […] Assays are carried out with and without matrix metalloproteinase inhibitor compounds, and the amount of hydrolysis is compared for a determination of inhibitory activity of the test compounds.

Counter-ions that a name gives are not always drawn. A value given as a limit tells only on which side of the number the result lay.

Broadly, the melting point is the temperature, or range, at which the solid turns liquid. `COc1cc(CNC(=O)c2cccc(-c3nnn(Cc4ccc(C(=O)O)cc4)n3)c2)ccn1` (as salt: TFA) [Example 33, 4-(5-{3-[(2-Methoxy-pyridin-4-ylmethyl)-carbamoyl]-phenyl}-tetrazol-2-ylmethyl)-benzoic acid]: the melting point was 228 °C (dec.).
`COC(=O)c1ccc(CNC(=O)c2cccc(-c3nnn(Cc4cccc(OC)c4)n3)c2)cc1` [Example 3, 4-({3-[2-(3-Methoxy-benzyl)-2H-tetrazol-5-yl]-benzoylamino}-methyl)-benzoic acid methyl ester]: the melting point is 153 to 154 °C.
Turning to `O=C(O)c1ccc(CNC(=O)c2cccc(-c3nnn(Cc4ccc(F)cc4)n3)c2)cc1` [Example 6, 4-({3-[2-(4-Fluoro-benzyl)-2H-tetrazol-5-yl]-benzoylamino}-methyl)-benzoic acid], the melting point is 222 to 224 °C.
On to `O=C(O)c1ccc(CNC(=O)c2cccc(-c3nnn(Cc4cccc(F)c4)n3)c2)cc1` [Example 8, 4-({3-[2-(3-Fluoro-benzyl)-2H-tetrazol-5-yl]-benzoylamino}-methyl)-benzoic acid], for which the melting point fell in the range of 217 to 219 °C.
For `COC(=O)c1ccc(CNC(=O)c2cccc(-c3nnn(Cc4nccs4)n3)c2)cc1` [Example 9], the melting point was 158 to 160 °C.
Turning to `C/C=C/Cn1nnc(-c2cccc(C(=O)NCc3ccc(C(=O)OC)cc3)c2)n1` [Example 10, 4-{[3-(2-But-2-enyl-2H-tetrazol-5-yl)-benzoylamino]-methyl}benzoic acid methyl ester], the melting point was 107 to 108 °C.
Still for that read-out and setting: for `COc1ccc(Cn2nnc(-c3cccc(C(=O)NCc4nccs4)c3)n2)cc1` [Example 11, 3-[2-(4-Methoxy-benzyl)-2H-tetrazol-5-yl]-N-thiazol-2-ylmethyl-benzamide] the value was 143 to 145 °C; for `COc1ccc(Cn2nnc(-c3cccc(C(=O)NCc4ccc(CN5CCOCC5)cc4)c3)n2)cc1` [Example 12, 3-[2-(4-Methoxy-benzyl)-2H-tetrazol-5-yl]-N-(4-morpholin-4-ylmethyl-benzyl)-benzamide], 161 to 162 °C; for `COc1ccc(Cn2nnc(-c3cccc(C(=O)NCc4ccc(F)c(Cl)c4)c3)n2)cc1` [Example 13, N-(3-Chloro-4-fluoro-benzyl)-3-[2-(4-methoxy-benzyl)-2H-tetrazol-5-yl]-benzamide], 150 to 151 °C.
For orientation: IC50 means the point on the concentration scale where inhibition reaches its midpoint. In the case of `O=C(O)c1ccc(Cn2nnc(-c3cccc(-c4nnc(Cc5ccccc5)o4)c3)n2)cc1` [Example A1, 4-{5-[3-(5-Benzyl-[1,3,4]oxadiazol-2-yl)-phenyl]-tetrazol-2-ylmethyl}-benzoic acid], on MMP-13 catalytic domain, the IC50 is 440 nM.
Turning to `O=C(O)c1ccc(Cn2nnc(-c3cccc(-c4nnc(-c5ccccc5)o4)c3)n2)cc1` [Example A2, 4-{5-[3-(5-Phenyl-[1,3,4]oxadiazol-2-yl)-phenyl]-tetrazol-2-ylmethyl}-benzoic acid], on MMP-13 catalytic domain, the half-maximal inhibitory concentration (IC50) was over 3000 nM.
Turning to `CC(C)(C)OC(=O)c1ccc(Cn2nnc(-c3cccc(-c4ncc(-c5ccccc5)o4)c3)n2)cc1` [Example A3, 4-{5-[3-(5-Phenyl-oxazol-2-yl)-phenyl]-tetrazol-2-ylmethyl}-benzoic acid tertiary butyl ester], at MMP-13 catalytic domain, the IC50 came out at 1400 nM.
Regarding `O=C(O)c1ccc(Cn2nnc(-c3cccc(-c4ncc(-c5ccccc5)o4)c3)n2)cc1` [Example A4, 4-{5-[3-(5-Phenyl-oxazol-2-yl)-phenyl]-tetrazol-2-ylmethyl}-benzoic acid], the IC50 on MMP-13 catalytic domain was 400 nM.
For `Fc1ccc(Cn2nnc(-c3cccc(-c4ncc(-c5ccccc5)o4)c3)n2)cc1F` [Example A5, 2-(3,4-Difluoro-benzyl)-5-[3-(5-phenyl-oxazol-2-yl)-phenyl]-2H-tetrazole], on MMP-13 catalytic domain, the IC50 was found to be 1800 nM.
Same read-out and setting: for `COc1ccc(-c2cnc(-c3cccc(-c4nnn(Cc5ccc(C(=O)OC(C)(C)C)cc5)n4)c3)o2)cc1` [Example A6, 4-(5-{3-[5-(4-Methoxy-phenyl)-oxazol-2-yl]-phenyl}-tetrazol-2-ylmethyl)-benzoic acid tertiary butyl ester] the value was 1000 nM; for `COc1ccc(-c2cnc(-c3cccc(-c4nnn(Cc5ccc(C(=O)O)cc5)n4)c3)o2)cc1` [Example A7, 4-(5-{3-[5-(4-Methoxy-phenyl)-oxazol-2-yl]-phenyl}-tetrazol-2-ylmethyl)-benzoic acid], 18 nM; for `COc1ccc(-c2cnc(-c3cccc(-c4nnn(Cc5ccc(F)c(F)c5)n4)c3)o2)cc1` [Example A8, 2-(3,4-Difluoro-benzyl)-5-{3-[5-(4-methoxy-phenyl)-oxazol-2-yl]-phenyl}-2H-tetrazole], 1300 nM.
On the same count and under the same terms, for `COc1ccc(-c2cnc(-c3cccc(-c4nnn(Cc5ccc(C(=O)O)cc5)n4)c3)s2)cc1` [Example A9, 4-(5-{3-[5-(4-Methoxy-phenyl)-thiazol-2-yl]-phenyl}-tetrazol-2-ylmethyl)-benzoic acid] the value was 3.6 nM.
The same measure, in the same setting: for `COc1ccc(-c2cnc(-c3cccc(-c4nnc(-c5ccc(C(=O)O)cc5)o4)c3)o2)cc1` [Example B1, 4-(5-{3-[5-(4-Methoxy-phenyl)-oxazol-2-yl]-phenyl}-[1,3,4]oxadiazol-2-yl)-benzoic acid] the value was 49000 nM; for `COc1ccc(-c2cnc(-c3cccc(-c4nnc(Cc5ccc(C(=O)O)cc5)o4)c3)o2)cc1` [Example B2, 4-(5-{3-[5-(4-Methoxy-phenyl)-oxazol-2-yl]-phenyl}-[1,3,4]oxadiazol-2-ylmethyl)-benzoic acid], 200 nM.
For `COc1ccc(-c2cnc(-c3cccc(-c4nnc(Cc5ccc(C(=O)O)cc5)s4)c3)o2)cc1` [Example B3, 4-(5-{3-[5-(4-Methoxy-phenyl)-oxazol-2-yl]-phenyl}-[1,3,4]thiadiazol-2-ylmethyl)-benzoic acid], the IC50 at MMP-13 catalytic domain turned out to be 14 nM.
As for `O=C(O)c1ccc(-c2nnc(-c3cccc(C#CCc4ccccc4)c3)o2)cc1` [Example C1, 4-{5-[3-(3-Phenyl-prop-1-ynyl)-phenyl]-[1,3,4]oxadiazol-2-yl}-benzoic acid], the IC50 on MMP-13 catalytic domain worked out at 3400 nM.
Still for that read-out and setting: for `NCc1ccc(Cn2nnc(-c3cccc(C#CCc4ccccc4)c3)n2)cc1` [Example D6, 4-{5-[3-(3-Phenyl-prop-1-ynyl)-phenyl]-tetrazol-2-ylmethyl}-benzylamine] the value was 2800 nM; for `CCCC(=O)NCc1ccc(Cn2nnc(-c3cccc(C#CCc4ccccc4)c3)n2)cc1` [Example D7, N-(4-{5-[3-(3-Phenyl-prop-1-ynyl)-phenyl]-tetrazol-2-ylmethyl}-benzyl)-butyramide], 1300 nM.
As for `CC(=O)NCc1ccc(Cn2nnc(-c3cccc(C#CCc4ccccc4)c3)n2)cc1` [Example D8, N-(4-{5-[3-(3-Phenyl-prop-1-ynyl)-phenyl]-tetrazol-2-ylmethyl}-benzyl)-acetamide], the IC50 at MMP-13 catalytic domain amounted to 330 nM.
The same measure, in the same setting: for `O=C(O)c1ccc(Cn2nnc(-c3cccc(C(=O)NCc4ccncc4)c3)n2)cc1` [Example F1, 4-(5-{3-[(Pyridin-4-ylmethyl)-carbamoyl]-phenyl}-tetrazol-2-ylmethyl)-benzoic acid; compound with trifluoro-acetic acid] the value was 99 nM.
For `O=C(O)c1ccc(Cn2nnc(-c3cccc(C(=O)NCc4cccnc4)c3)n2)cc1` [Example F2, 4-(5-{3-[(Pyridin-3-ylmethyl)-carbamoyl]-phenyl}-tetrazol-2-ylmethyl)-benzoic acid; compound with trifluoro-acetic acid], the IC50 on MMP-13 catalytic domain was found to be 280 nM.
Take `O=C(O)c1ccc(Cn2nnc(-c3cccc(C#CCOc4ccc(F)cc4)c3)n2)cc1` [Example G4, 4-(5-{3-[3-(4-Fluoro-phenoxy)-prop-1-ynyl]-phenyl}-tetrazol-2-ylmethyl)-benzoic acid]: the half-inhibitory concentration (IC50) at MMP-13 catalytic domain stood at 86 nM.
The same measure, in the same setting: for `O=C(O)c1ccc(Cn2nnc(-c3cccc(C#CCn4ccnc4)c3)n2)cc1` [Example G5, 4-{5-[3-(3-Imidazol-1-yl-prop-1-ynyl)-phenyl]-tetrazol-2-ylmethyl}-benzoic acid] the value was 6.8 nM.
As to `O=C(O)c1ccc(Cn2nnc(-c3cccc(C#CCn4ccc(=O)cc4)c3)n2)cc1` [Example G6, 4-(5-{3-[3-(4-Oxo-4H-pyridin-1-yl)-prop-1-ynyl]-phenyl}-tetrazol-2-ylmethyl)-benzoic acid], the IC50 on MMP-13 catalytic domain is 6.4 nM.
With `O=C(O)c1ccc(Cn2nnc(-c3cccc(C#CCn4cnc(-c5ccccc5)c4)c3)n2)cc1` [Example G7, 4-(5-{3-[3-(4-Phenyl-imidazol-1-yl)-prop-1-ynyl]-phenyl}-tetrazol-2-ylmethyl)-benzoic acid], the half-inhibitory concentration (IC50) at MMP-13 catalytic domain stood at 29 nM.
Still for that read-out and setting: next, `CC(C#Cc1cccc(-c2nnn(Cc3ccc(C(=O)O)cc3)n2)c1)c1ccccc1` (centres unmarked) [Example G8, 4-{5-[3-(3-Phenyl-but-1-ynyl)-phenyl]-tetrazol-2-ylmethyl}-benzoic acid]: 1800 nM.
Same read-out and setting: for `O=C(O)c1ccc(Cn2nnc(-c3cncc(C#CCc4ccc(F)cc4)c3)n2)cc1` [Example H2, 4-(5-{5-[3-(4-Fluoro-phenyl)-prop-1-ynyl]-pyridin-3-yl}-tetrazol-2-ylmethyl)-benzoic acid] the value was 8.3 nM.
Consider `O=C(O)c1ccc(Cn2nnc(-c3cncc(C#CCn4ccnc4)c3)n2)cc1` [Example H3, 4-{5-[5-(3-Imidazol-1-yl-prop-1-ynyl)-pyridin-3-yl]-tetrazol-2-ylmethyl}-benzoic acid], for which the IC50 at MMP-13 catalytic domain amounted to 160 nM.
Same read-out and setting: next, “[4-(5-{3-[3-(4-Fluoro-phenyl)-prop-1-ynyl]-phenyl}-tetrazol-2-ylmethyl)-phenyl]-phosphonic acid [Example D2]”: 13 nM.

For the origin of these results see US20090029995A1, “HETERO BIARYL DERIVATIVES AS MATRIX METALLOPROTEINASE INHIBITORS” (WARNER-LAMBERT COMPANY, priority 2002, published 2009).
